# From patent US20230183193A1, “4-DIFLUOROMETHYL BENZOYL AMIDES WITH HERBICIDAL ACTION” (BAYER CROPSCIENCE AKTIENGESELLSCHAFT, priority 2017, published 2023)
# Columns and labels:
# Format in all cases: in vivo
# [1] = system: Stellaria media; assay: Pre-emergence herbicidal action, STEME; conditions: dosage 320 g/ha, scored visually after 3 weeks vs untreated controls
# In short: (§1)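 Weed seeds were laid out in sandy loam and covered with soil, then the soil surface was treated with an aqueous suspension or emulsion of the formulated compound containing 0.2% wetting agent. Pots stayed in the greenhouse for 3 weeks before damage was rated visually against untreated plants.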
# [2] = system: Viola tricolor; assay: Pre-emergence herbicidal action, VIOTR; conditions: dosage 320 g/ha, scored visually after 3 weeks vs untreated controls
# In short: as §1
# [3] = system: Pharbitis purpureum; assay: Post-emergence herbicidal action, PHBPU; conditions: 80 g/ha, Table D
# In short: (§2)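 Post-emergence spray; one-leaf stage (2–3 wk after sowing), sandy loam, greenhouse. WP/EC in water, 600 to […], +0.2% wetting agent. Visual % damage vs untreated at ~3 wk; 100% = plants dead.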
# [4] = system: Abutilon theophrasti; assay: Post-emergence herbicidal action, ABUTH; conditions: 80 g/ha, Table D
# In short: as §2
# [5] = system: Avena fatua; assay: Pre-emergence herbicidal action, AVEFA; conditions: dosage 320 g/ha, scored visually after 3 weeks vs untreated controls
# In short: as §1
# [6] = system: ECHCG; assay: Post-emergence herbicidal action, ECHCG; conditions: 80 g/ha, Table C
# In short: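 Weed and crop plants grown in sandy loam in the greenhouse, treated at the one-leaf stage 2–3 weeks after sowing. Damage scored visually after about 3 weeks vs untreated controls (0% = control, 100% = dead).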
# [7] = system: Amaranthus retroflexus; assay: Post-emergence herbicidal action, AMARE; conditions: 80 g/ha, Table D
# In short: as §2
# [8] = system: Cyperus serotinus; assay: Pre-emergence herbicidal action, CYPES; conditions: dosage 320 g/ha, scored visually after 3 weeks vs untreated controls
# In short: as §1
# [9] = system: Stellaria media; assay: Post-emergence herbicidal action, STEME; conditions: 80 g/ha, Table D
# In short: as §2
# [10] = system: Setaria viridis; assay: Post-emergence herbicidal action, SETVI; conditions: 80 g/ha, Table C
# In short: as §2
# [11] = system: Viola tricolor; assay: Post-emergence herbicidal action, VIOTR; conditions: 80 g/ha, Table D
# In short: as §2
# [12] = system: Amaranthus retroflexus; assay: Pre-emergence herbicidal action, AMARE; conditions: dosage 320 g/ha, scored visually after 3 weeks vs untreated controls
# In short: as §1
# [13] = system: Alopecurus myosuroides; assay: Post-emergence herbicidal action, ALOMY; conditions: 80 g/ha, Table C
# In short: as §2
# [14] = system: Matricaria inodora; assay: Pre-emergence herbicidal action, MATIN; conditions: dosage 320 g/ha, scored visually after 3 weeks vs untreated controls
# In short: as §1
# [15] = system: Abutilon theophrasti; assay: Pre-emergence herbicidal action, ABUTH; conditions: dosage 320 g/ha, scored visually after 3 weeks vs untreated controls
# In short: as §1
# [16] = system: Setaria viridis; assay: Pre-emergence herbicidal action, SETVI; conditions: dosage 320 g/ha, scored visually after 3 weeks vs untreated controls
# In short: as §1
# [17] = system: Avena fatua; assay: Post-emergence herbicidal action, AVEFA; conditions: 80 g/ha, Table C
# In short: as §2
# [18] = system: Alopecurus myosuroides; assay: Pre-emergence herbicidal action, ALOMY; conditions: dosage 320 g/ha, scored visually after 3 weeks vs untreated controls
# In short: as §1
Compound,Herbicidal activity STEME [1],herbicidal activity VIOTR [2],Herbicidal activity PHBPU [3],herbicidal activity ABUTH [4],herbicidal activity AVEFA [5],Herbicidal activity ECHCG [6],herbicidal activity AMARE [7],herbicidal activity CYPES [8],Herbicidal activity STEME [9],herbicidal activity SETVI [10],herbicidal activity VIOTR [11],herbicidal activity AMARE [12],herbicidal activity ALOMY [13],herbicidal activity MATIN [14],herbicidal activity ABUTH [15],herbicidal activity SETVI [16],herbicidal activity AVEFA [17],herbicidal activity ALOMY [18]
CCc1c(C(=O)Nc2nnnn2C)ccc(C(F)F)c1[S+](C)[O-] (stereo not drawn) [Example 1-14],100%,100%,90%,100%,100%,100%,90%,100%,100%,100%,90%,100%,90%,100%,100%,100%,90%,100%
CCc1c(C(=O)Nc2nnc(C)o2)ccc(C(F)F)c1[S+]([O-])CC (stereo not drawn) [Example 7-15],100%,100%,90%,100%,100%,90%,100%,100%,100%,100%,100%,100%,90%,100%,100%,100%,100%,100%
CCn1nnnc1NC(=O)c1ccc(C(F)F)c([S+]([O-])CC)c1C1CC1 (stereo not drawn) [Example 2-29],100%,100%,90%,100%,100%,100%,100%,90%,100%,100%,100%,100%,100%,100%,100%,100%,90%,100%
CSc1c(C(F)F)ccc(C(=O)Nc2ncnn2C)c1Br [Example 4-61],90%,100%,100%,100%,90%,100%,100%,90%,100%,100%,100%,100%,100%,100%,100%,100%,100%,100%
CCSc1c(C(F)F)ccc(C(=O)Nc2nnc(C)o2)c1Br [Example 7-62],100%,100%,90%,100%,90%,100%,100%,80%,100%,100%,100%,100%,90%,90%,100%,100%,100%,100%
CC[S+]([O-])c1c(C(F)F)ccc(C(=O)Nc2nnnn2C)c1C1CC1 (stereo not drawn) [Example 1-29],100%,100%,100%,100%,100%,100%,100%,100%,100%,100%,100%,100%,100%,100%,100%,100%,90%,100%
CC[S+]([O-])c1c(C(F)F)ccc(C(=O)Nc2nnnn2C)c1Br (stereo not drawn) [Example 1-65],100%,100%,100%,100%,100%,100%,100%,90%,100%,100%,100%,100%,100%,100%,100%,100%,100%,100%
CCn1nnnc1NC(=O)c1ccc(C(F)F)c(S(C)(=O)=O)c1C1CC1 [Example 2-27],100%,100%,90%,100%,100%,100%,100%,100%,100%,100%,100%,100%,90%,100%,100%,100%,100%,100%
CCSc1c(C(F)F)ccc(C(=O)Nc2nnnn2CC)c1Br [Example 2-64],100%,100%,100%,100%,100%,100%,100%,100%,100%,100%,100%,100%,100%,100%,100%,100%,100%,100%
CCS(=O)(=O)c1c(C(F)F)ccc(C(=O)Nc2nnnn2C)c1C1CC1 [Example 1-30],100%,100%,90%,100%,100%,100%,90%,90%,100%,100%,100%,100%,100%,100%,100%,100%,100%,100%
CCSc1c(C(F)F)ccc(C(=O)Nc2nnnn2C)c1Cl [Example 1-52],100%,100%,100%,100%,100%,90%,100%,90%,100%,90%,100%,100%,100%,100%,100%,100%,100%,100%
